Reference: patent US6426355B1, “Heterocyclic carboxamide-containing thiourea inhibitors of herpes viruses containing phenylenediamine group” (American Home Products, priority 1998, dated 2002)
Converted amounts (≈) assume the structure as drawn.

Key:
[1] = test system: HCMV recombinant mutant virus (RV145); experiment: HCMV microtiter plate assay (beta-glucuronidase reporter); assay type: cell-based, Human Cytomegalovirus; conditions: for IC50 (ug/ml) HCMV: HCMV in human foreskin fibroblasts; for IC50: Human betaherpesvirus 5, Fibroblast, read-out: IC50 (ug/ml) HCMV
How it was run: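 Replication was read out as virus-encoded β-glucuronidase activity, measured with a chromogenic or fluorogenic glucuronide substrate in cell lysates at 96 h post-infection. Infection of human foreskin fibroblasts with RV145 took place with compound present. IC50 was derived from a range of inhibitor amounts.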

HSV-1 = experiment: HSV Antiviral (ELISA) assay; assay type: cell-based; conditions: for IC50 (ug/ml) HSV: HSV-1 in Vero cells; for IC50: Human alphaherpesvirus 1, HSV-1 in Vero cells, read-out: IC50 (ug/ml) HSV
How it was run: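 Replication measured as glycoprotein D signal in fixed cells: anti-gD antibody plus β-galactosidase-linked secondary, fluorogenic substrate read at 365/450 nm. Vero cells (2% FBS DMEM) received compound 30 min pre-infection, HSV-1 MOI 0.006, ~24 h incubation; IC50 relative to no-compound fluorescence.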

VZV strain Ellen = experiment: VZV Antiviral (ELISA) assay; assay type: cell-based; conditions: for IC50: Human alphaherpesvirus 3, VZV strain Ellen in HFF cells, read-out: IC50 (ug/ml) VZV; for inhibition at 10 µg/mL: Human alphaherpesvirus 3, read-out: % inhibition 10 ug/ml VZV, at 10 ug/ml, VZV strain Ellen in HFF cells
How it was run: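 Antiviral IC50 is derived by comparing fluorescence with and without compound after a three-day culture of VZV-infected plus uninfected foreskin fibroblasts. Replication is quantified by ELISA against glycoprotein II, using a β-galactosidase secondary and methyl umbelliferyl-β-D-galactoside.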

Row | Compound | IC50 (ug/ml) HCMV [1] | IC50 (ug/ml) HSV (HSV-1) | IC50 (ug/ml) VZV (VZV strain Ellen; VZV strain Ellen in HFF cells) | % inhibition 10 ug/ml VZV (VZV strain Ellen; at 10 ug/ml, VZV strain Ellen in HFF cells) | IC50 [1] | IC50 (HSV-1) | IC50 (VZV strain Ellen) | inhibition at 10 µg/mL (VZV strain Ellen)
1 | CC(NC(=S)Nc1ccc(NC(=O)c2ccncc2)cc1)c1ccc(F)cc1 (stereo not shown) [Example 759] | >10 µg/mL | >10 µg/mL | 2 µg/mL (≈ 5.07 µM) |  |  |  |  | 
2 | O=C(Nc1ccc(NC(=S)NCCc2cc(F)cc(C(F)(F)F)c2)cc1)c1csnn1 [Example 762] | 0.002 µg/mL (≈ 0.00426 µM) | >10 µg/mL | 1.5 µg/mL (≈ 3.19 µM) |  |  |  |  | 
3 | O=C(Nc1ccc(NC(=S)NCCc2cc(C(F)(F)F)ccc2F)cc1)c1csnn1 [Example 767] | 0.006 µg/mL (≈ 0.0128 µM) | >10 µg/mL | 1 µg/mL (≈ 2.13 µM) |  |  |  |  | 
4 | CC(NC(=S)Nc1ccc(NC(=O)c2ccc3ccccc3n2)cc1)c1ccc(F)cc1 (stereo not shown) [Example 796] | 4 µg/mL (≈ 9 µM) | >10 µg/mL | >7.5 µg/mL |  |  |  |  | 
5 | O=C(Nc1ccc(NC(=S)Nc2cc(Cl)ccc2Cl)cc1)c1csnn1 [Example 866, [1,2,3,]Thiadiazole-4-carboxylic acid {4-[3-(2,5-dichloro-phenyl)-thioureido]-phenyl}-amide] | 0.035 µg/mL (≈ 0.0825 µM) | >10 µg/mL | >10 µg/mL | 50% |  |  |  | 
6 | COc1c(Cl)cc(NC(=S)Nc2ccc(NC(=O)c3ccco3)cc2)cc1Cl [Example 875, Furan-2-carboxylic acid {4-[3-(3,5-dichloro-4-methoxy-phenyl)-thioureido]-phenyl}-amide] |  |  |  |  | > 2.2 µg/mL | > 50 µg/mL | > 10 µg/mL | 18%
7 | COc1cc(OC)c(NC(=S)Nc2ccc(NC(=O)c3ccco3)cc2)cc1Br [Example 879, Furan-2-carboxylic acid {4-[3-(5-bromo-2,4-dimethoxy-phenyl)-thioureido]-phenyl}-amide] |  |  |  |  | 0.3 µg/mL (≈ 0.63 µM) | 4 µg/mL (≈ 8.4 µM) | 10 µg/mL (≈ 21 µM) | 65%
8 | COc1ccc(NC(=S)Nc2ccc(NC(=O)c3csnn3)cc2)cc1Cl [Example 888, [1,2,3]Thiadiazole-4-carboxylic acid {4-[3-(3-chloro-4-methoxy-phenyl)-thioureido]-phenyl}-amide] |  |  |  |  | 0.06 µg/mL (≈ 0.143 µM) | 6 µg/mL (≈ 14.3 µM) | > 10 µg/mL | 31%
9 | CSc1ccc(NC(=S)Nc2ccc(NC(=O)c3ccco3)cc2)cc1Cl [Example 897, Furan-2-carboxylic acid {4-[3-(3-chloro-4-methylsulfanyl-phenyl)-thioureido]-phenyl}-amide] |  |  |  |  | 0.037 µg/mL (≈ 0.0885 µM) | > 10 µg/mL | > 10 µg/mL | 62%
10 | CN(C)c1ccc(NC(=S)Nc2ccc(NC(=O)c3csnn3)cc2)cc1Cl [Example 902, [1,2,3]Thiadiazole-4-carboxylic acid {4-[3-(3-chloro-4-dimethylamino-phenyl)-thioureido]-phenyl}-amide] |  |  |  |  | 0.12 µg/mL (≈ 0.277 µM) | > 10 µg/mL | > 10 µg/mL | 10%
11 | CN1CCC(N(C)c2ccc(NC(=S)Nc3ccc(NC(=O)c4csnn4)cc3)cc2Cl)CC1 [Example 904, [1,2,3]Thiadiazole-4-carboxylic acid [4-(3-{3-chloro-4-[methyl-(1-methyl-piperidin-4-yl)-amino]-phenyl}-thioureido)-phenyl]-amide] |  |  |  |  | 0.4 µg/mL (≈ 0.775 µM) | 12 µg/mL (≈ 23.3 µM) | > 10 µg/mL | 58%
12 | CN(c1ccc(NC(=S)Nc2ccc(NC(=O)c3csnn3)cc2)cc1Cl)C1CCN(Cc2ccccc2)C1 (stereo not shown) [Example 905, [1,2,3]Thiadiazole-4-carboxylic acid [4-(3-{4-[(1-benzyl-pyrrolidin-3-yl)-methyl-amino]-3-chloro-phenyl}-thioureido)-phenyl]-amide] |  |  |  |  | 0.3 µg/mL (≈ 0.519 µM) | 4 µg/mL (≈ 6.92 µM) | 2 µg/mL (≈ 3.46 µM) | 82%
13 | COc1cc(C)c(Cl)cc1NC(=S)Nc1ccc(NC(=O)c2csnn2)cc1 [Example 907, [1,2,3]Thiadiazole-4-carboxylic acid {4-[3-(5-chloro-2-methoxy-4-methyl-phenyl)-thioureido]-phenyl}-amide] |  |  |  |  | 0.009 µg/mL (≈ 0.0207 µM) | > 10 µg/mL | > 10 µg/mL | 36%
14 | O=C(Nc1ccc(NC(=S)Nc2ccccc2)cc1)c1ccco1 [Example 911, Furan-2-carboxylic acid [4-(3-phenyl-thioureido)-phenyl]-amide] |  |  |  |  | 0.3 µg/mL (≈ 0.889 µM) | > 10 µg/mL | > 10 µg/mL | 25%
15 | O=C(Nc1ccc(NC(=S)Nc2ccccc2)cc1)c1csnn1 [Example 912, [1,2,3]Thiadiazole-4-carboxylic acid [4-(3-phenyl-thioureido)-phenyl]-amide] |  |  |  |  | 0.16 µg/mL (≈ 0.45 µM) | > 10 µg/mL | > 10 µg/mL | 0%
16 | CC(O)c1ccc(NC(=S)Nc2ccc(NC(=O)c3ccco3)cc2)cc1Cl (stereo not shown) [Example 917, Furan-2-carboxylic acid (4-{3-[3-chloro-4-(1-hydroxy-ethyl)-phenyl]-thioureido}-phenyl)-amide] |  |  |  |  | 0.2 µg/mL (≈ 0.481 µM) | 10 µg/mL (≈ 24 µM) | > 10 µg/mL | 
17 | Nc1cccc(NC(=S)Nc2ccc(NC(=O)c3csnn3)cc2)c1 [Example 918, [1,2,3]Thiadiazole-4-carboxylic acid {4-[3-(3-amino-phenyl)-thioureido]-phenyl}-amide] |  |  |  |  | 0.03 µg/mL (≈ 0.081 µM) | > 10 µg/mL | > 10 µg/mL | 
18 | O=C(Nc1ccc(NC(=S)Nc2ccc(OC(F)(F)F)c(Br)c2)cc1)c1ccco1 [Example 919, Furan-2-carboxylic acid {4-[3-(3-bromo-4-trifluoromethoxy-phenyl)-thioureido]-phenyl}-amide] |  |  |  |  | 0.05 µg/mL (≈ 0.0999 µM) | > 10 µg/mL | > 10 µg/mL | 
19 | O=C(Nc1ccc(NC(=S)Nc2cc(Cl)cc(Cl)c2)cc1)c1csnn1 [Example 921, [1,2,3]Thiadiazole-4carboxylic acid {4-[3-(3,5-dichloro-phenyl)-thioureido]-phenyl}-amide] |  |  |  |  | 0.05 µg/mL (≈ 0.118 µM) | 8 µg/mL (≈ 18.9 µM) | 7 µg/mL (≈ 16.5 µM) | 85%
20 | COc1c(Cl)cc(NC(=S)Nc2ccc(NC(=O)c3cccc(F)c3)cc2)cc1Cl [Example 922, N-{4-[3-(3,5-Dichloro-4-methoxy-phenyl)-thioureido]-phenyl}-3-fluoro-benzamide] |  |  |  |  | 0.01 µg/mL (≈ 0.0215 µM) | > 10 µg/mL | 7 µg/mL (≈ 15.1 µM) | 84%
21 | CC(=O)Nc1ccc(NC(=S)Nc2ccc(C)c(Cl)c2)cc1 [Example 939, N-{4-[3-(3-Chloro-4-methyl-phenyl)-thioureido]-phenyl} -acetamide] |  |  |  |  | 0.018 µg/mL (≈ 0.0539 µM) | > 10 µg/mL | 15 µg/mL (≈ 44.9 µM) | 53%
22 | O=C(Nc1ccc(NC(=S)Nc2ccc(C(F)(F)F)c(Cl)c2)cc1)c1csnn1 [Example 960, [1,2,3]Thiadiazole-4-carboxylic acid {4-[3-(3-chloro-4-trifluoromethyl-phenyl)-thioureido]-phenyl}-amide] |  |  |  |  | 0.03 µg/mL (≈ 0.0655 µM) | > 10 µg/mL | > 10 µg/mL | 58%
23 | O=C(Nc1ccc(NC(=S)Nc2ccc(C(F)(F)F)c(Cl)c2)cc1)c1ccccc1F [Example 961, N-{4-[3-(3-Chloro-4-trifluoromethyl-phenyl)-thioureido]-phenyl} -2-fluoro-benzamide] |  |  |  |  | 0.006 µg/mL (≈ 0.0128 µM) | > 10 µg/mL |  | 20%
24 | O=C(Nc1ccc(NC(=S)Nc2ccc(Cl)c(Cl)c2)cc1)c1csnn1 [Example 964, [1,2,3]Thiadiazole-4-carboxylic acid {4-[3-(3,4-dichloro-phenyl)-thioureido]-phenyl}-amide] |  |  |  |  | 0.03 µg/mL (≈ 0.0707 µM) | > 10 µg/mL | > 10 µg/mL | 9%
25 | O=C(Nc1ccc(NC(=S)Nc2ccc(Br)c(Cl)c2)cc1)c1ccccc1F [Example 965, N-{4-[3-(4-Bromo-3-chloro-phenyl)-thioureido]-phenyl} -2-fluoro-benzamide] |  |  |  |  | 0.008 µg/mL (≈ 0.0167 µM) | > 10 µg/mL |  | 36%
26 | O=C(Nc1ccc(NC(=S)Nc2ccc(I)c(Cl)c2)cc1)c1ccccc1F [Example 966, N-{4-[3-(3-Chloro-4-iodo-phenyl)-thioureido]-phenyl} -2-fluoro-benzamide] |  |  |  |  | 0.02 µg/mL (≈ 0.038 µM) | > 10 µg/mL |  | 42%
27 | O=C(Nc1ccc(NC(=S)Nc2ccc(F)c(Cl)c2)cc1)c1ccco1 [Example 969, Furan-2-carboxylic acid {4-[3-(3-chloro-4-fluoro-phenyl)-thioureido]-phenyl}-amide] |  |  |  |  | 0.03 µg/mL (≈ 0.077 µM) | > 10 µg/mL | > 10 µg/mL | 40%
28 | O=C(Nc1ccc(NC(=S)Nc2ccc(Br)c(Cl)c2)cc1)c1csnn1 [Example 970, [1,2,3]Thiadiazole-4-carboxylic acid {4-[3-(4-bromo-3-chloro-phenyl)-thioureido]-phenyl}-amide] |  |  |  |  | 0.06 µg/mL (≈ 0.128 µM) | > 10 µg/mL | > 10 µg/mL | 16%
29 | O=C(Nc1ccc(NC(=S)Nc2ccc(I)c(Cl)c2)cc1)c1csnn1 [Example 971, [1,2,3]Thiadiazole-4-carboxylic acid {4-[3-(3-chloro-4-iodo-phenyl)-thioureido]-phenyl} -amide] |  |  |  |  | 0.013 µg/mL (≈ 0.0252 µM) | > 10 µg/mL | > 10 µg/mL | 9%
